# Laboratory results published in patent US20250346597A1, “CONDENSED HETEROCYCLIC COMPOUNDS AS INHIBITOR OF DIACYLGLYCEROL KINASES” (BEONE MEDICINES I GMBH, priority 2023, published 2025).
# Legend:
# [1] = target: DGKζ (Homo sapiens (Human), UniProt Q13574); test: Biochemical DGK IC50 assay (ADP-Glo, lipid micelle substrate), DGKζ; conditions: full length DGKζ 0.5 nM, ATP 140 μM, DAG 80 μM
# Outline: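 ADP-Glo luminescence measured ADP made in a 1 h room-temperature reaction. The enzyme was Sf9-expressed, purified full-length human DGKζ, and the substrate was DAG/PS micelles. Assay buffer held 50 mM HEPES, 10 mM MgCl2, 0.01 mM CaCl2, 0.1 mM Na3VO4 and 0.01% BSA. IC50 was derived from activity inhibition over a compound concentration series.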
# [2] = target: DGKα (Homo sapiens (Human), UniProt P23743); test: Biochemical DGK IC50 assay (ADP-Glo, lipid micelle substrate), DGKα; conditions: full length DGKα […], ATP 140 μM, DAG 80 μM; also: full length DGKα 7.5 nM
# Sequence of DGKα (P23743 whole entry): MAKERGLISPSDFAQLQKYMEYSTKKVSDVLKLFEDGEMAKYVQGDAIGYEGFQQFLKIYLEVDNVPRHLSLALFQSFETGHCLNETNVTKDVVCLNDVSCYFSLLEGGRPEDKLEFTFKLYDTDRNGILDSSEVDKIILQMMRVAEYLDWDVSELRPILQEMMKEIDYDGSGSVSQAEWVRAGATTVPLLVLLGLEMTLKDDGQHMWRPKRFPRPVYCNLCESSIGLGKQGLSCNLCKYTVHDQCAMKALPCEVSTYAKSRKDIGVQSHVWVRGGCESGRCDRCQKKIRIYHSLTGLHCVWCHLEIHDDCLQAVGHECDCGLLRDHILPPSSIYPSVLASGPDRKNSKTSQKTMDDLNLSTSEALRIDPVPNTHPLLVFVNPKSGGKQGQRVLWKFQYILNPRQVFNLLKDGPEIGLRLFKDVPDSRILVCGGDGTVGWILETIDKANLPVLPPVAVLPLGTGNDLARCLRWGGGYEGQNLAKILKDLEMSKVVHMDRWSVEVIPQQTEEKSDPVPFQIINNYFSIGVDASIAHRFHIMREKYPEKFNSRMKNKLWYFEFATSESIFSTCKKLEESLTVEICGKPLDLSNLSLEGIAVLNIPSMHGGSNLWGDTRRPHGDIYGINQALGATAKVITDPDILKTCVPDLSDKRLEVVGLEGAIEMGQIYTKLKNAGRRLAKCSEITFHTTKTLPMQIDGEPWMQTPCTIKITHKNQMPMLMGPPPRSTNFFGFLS
# Outline: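 Luminescent ADP-Glo detection followed a 1 h room-temperature reaction of full-length DGKα on DAG/PS micelles, in HEPES buffer with 10 mM MgCl2, 0.01 mM CaCl2, 0.1 mM Na3VO4, BSA and Tween-20. IC50 derived from inhibition across increasing compound concentrations.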
# Sequence of DGKζ (Q13574 other isoform, or with tags, fused parts or gaps): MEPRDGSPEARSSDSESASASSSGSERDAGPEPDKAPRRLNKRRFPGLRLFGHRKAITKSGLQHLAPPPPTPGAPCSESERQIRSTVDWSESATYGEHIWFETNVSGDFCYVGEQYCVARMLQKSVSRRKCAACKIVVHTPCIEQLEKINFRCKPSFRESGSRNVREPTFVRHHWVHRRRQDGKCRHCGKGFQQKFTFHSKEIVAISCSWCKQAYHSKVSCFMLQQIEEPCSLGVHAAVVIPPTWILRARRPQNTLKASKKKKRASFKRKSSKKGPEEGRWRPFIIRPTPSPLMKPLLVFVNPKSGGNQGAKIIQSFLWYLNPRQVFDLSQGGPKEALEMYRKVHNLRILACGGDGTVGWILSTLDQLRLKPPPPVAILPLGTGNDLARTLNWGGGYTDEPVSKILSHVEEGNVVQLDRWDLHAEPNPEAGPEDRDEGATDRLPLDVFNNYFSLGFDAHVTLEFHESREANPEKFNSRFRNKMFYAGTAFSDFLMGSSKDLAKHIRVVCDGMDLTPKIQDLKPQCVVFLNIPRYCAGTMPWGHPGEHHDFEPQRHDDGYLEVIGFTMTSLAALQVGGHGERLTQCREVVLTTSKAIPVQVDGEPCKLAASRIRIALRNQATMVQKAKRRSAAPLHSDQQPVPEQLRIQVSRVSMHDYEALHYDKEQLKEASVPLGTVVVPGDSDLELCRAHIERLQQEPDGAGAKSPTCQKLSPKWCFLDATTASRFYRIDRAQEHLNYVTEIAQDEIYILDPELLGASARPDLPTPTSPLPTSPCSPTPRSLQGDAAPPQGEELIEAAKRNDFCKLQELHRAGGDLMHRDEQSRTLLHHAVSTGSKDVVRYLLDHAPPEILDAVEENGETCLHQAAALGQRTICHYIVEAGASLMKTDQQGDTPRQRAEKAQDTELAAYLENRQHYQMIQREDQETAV
IC50 [1] [nM],IC50 [2] [nM],Compound
> 10000,4210,"CC[C@H]1CN(C(C)c2ccc(C(=O)N(C)CCOC)cc2)[C@H](CC)CN1c1cc(=O)n(C)c2cn(CC#N)nc12 (single isomer, unassigned) [Compound A195b]"
8.9,53,"CC[C@H]1CN(C(C)c2ccc3ncc(Cl)n3n2)[C@H](CC)CN1c1nc(=O)n(C)c2cn(CC#N)nc12 (single isomer, unassigned) [Compound A174b]"
651,45,"CC[C@H]1CN(C(C)c2ccc(CC#N)cc2)[C@H](CC)CN1c1cc(=O)n(C)c2cn(CC#N)nc12 (stereo partly drawn) [Compound A190, 2-(4-(1-((2R,5S)-4-(2-(cyanomethyl)-4-methyl-5-oxo-4,5-dihydro-2H-pyrazolo[4,3-b]pyridin-7-yl)-2,5-diethylpiperazin-1-yl)ethyl)phenyl)acetonitrile]"
> 10000,7140,"CC[C@H]1CN(C(C)c2ccc3nc(C)cn3n2)[C@H](CC)CN1c1nc(=O)n(C)c2cn(CC#N)nc12 (single isomer, unassigned) [Compound A150a]"
3280,2040,"CC#CCn1cc2c(n1)c(N1C[C@@H](CC)N(C(C)c3ccc4nc(C)sc4c3F)C[C@@H]1CC)cc(=O)n2C (single isomer, unassigned) [Compound A138b]"
939,3350,"CC[C@H]1CN(C(C)c2ccc3nc(COC)sc3c2)[C@H](CC)CN1c1cc(=O)n(C)c2cn(CC#N)nc12 (single isomer, unassigned) [Compound A145b]"
24,61,"CC[C@H]1CN(C(C)c2ccc3nc(C)sc3n2)[C@H](CC)CN1c1cc(=O)n(C)c2cn(CC#N)nc12 (single isomer, unassigned) [Compound A133b]"
2310,1280,"CC[C@H]1CN(C(C)c2ccc3cc(C(F)F)sc3n2)[C@H](CC)CN1c1nc(=O)n(C)c2cn(CC#N)nc12 (single isomer, unassigned) [Compound A148a]"
135,18,"CC[C@H]1CN(C(C)c2ccc3cc(C(F)F)sc3n2)[C@H](CC)CN1c1cc(=O)n(C)c2cn(CC#N)nc12 (single isomer, unassigned) [Compound A144b]"
152,180,"CC[C@H]1CN(C(C)c2ccc3nc(OCCF)sc3n2)[C@H](CC)CN1c1cc(=O)n(C)c2cn(CC#N)nc12 (single isomer, unassigned) [Compound A147a]"
79,32,"CC[C@H]1CN(C(C)c2ccn3nc(Cl)cc3n2)[C@H](CC)CN1c1cc(=O)n(C)c2cn(CC#N)nc12 (stereo partly drawn) [Compound A175, 2-(7-((2S,5R)-4-(1-(2-chloropyrazolo[1,5-a]pyrimidin-5-yl)ethyl)-2,5-diethylpiperazin-1-yl)-4-methyl-5-oxo-4,5-dihydro-2H-pyrazolo[4,3-b]pyridin-2-yl)acetonitrile]"
91,21,"CC[C@H]1CN(C(C)c2ccn3nc(F)cc3n2)[C@H](CC)CN1c1cc(=O)n(C)c2cn(CC#N)nc12 (single isomer, unassigned) [Compound A158b]"
3920,3390,"[2H]C([2H])([2H])n1c(=O)cc(N2C[C@@H](CC)N(C(C)c3ccc4nc(C)sc4n3)C[C@@H]2CC)c2nn(CC#N)cc21 (single isomer, unassigned) [Compound A134a]"
3380,840,"CC[C@H]1CN(C(C)c2ccc3nc(C)sc3n2)[C@H](CC)CN1c1c(C#N)c(=O)n(C)c2cn(CC#N)nc12 (single isomer, unassigned) [Compound A140a]"
118,13,CC#CCn1cc2c(n1)c(N1C[C@@H](CC)N(C(C)c3ccc4nc(C)sc4n3)C[C@@H]1CC)cc(=O)n2C (some centres unmarked) [Compound A137]

# Second part, the compound before the results:
Compound,IC50 [1] [nM],IC50 [2] [nM]
"CC[C@H]1CN(C(C)c2ccc(C3CC3)c(C)n2)[C@H](CC)CN1c1cc(=O)n(C)c2cn(CC#N)nc12 (stereo partly drawn) [Compound A58, 2-(7-((2S,5R)-4-(1-(5-cyclopropyl-6-methylpyridin-2-yl)ethyl)-2,5-diethylpiperazin-1-yl)-4-methyl-5-oxo-4,5-dihydro-2H-pyrazolo[4,3-b]pyridin-2-yl)acetonitrile]",94,487
"CC[C@H]1CN(C(C)c2ccc(C)c(C)n2)[C@H](CC)CN1c1cc(=O)n(C)c2cn(CC#N)nc12 (single isomer, unassigned) [Compound A54a]",33,76
"CCc1ccc(C(C)N2C[C@H](CC)N(c3cc(=O)n(C)c4cn(CC#N)nc34)C[C@H]2CC)cc1 (stereo partly drawn) [Compound A7, 2-(7-((2S,5R)-2,5-diethyl-4-(1-(4-ethylphenyl)ethyl)piperazin-1-yl)-4-methyl-5-oxo-4,5-dihydro-2H-pyrazolo[4,3-b]pyridin-2-yl)acetonitrile]",152,129
"CC[C@@H]1CN(c2cc(=O)n(C)c3cn(CC#N)nc23)[C@@H](C)CN1C(C)c1ccc2nc(C)sc2c1F (single isomer, unassigned) [Compound A104a]",6.5,3150
"CC[C@H]1CN(C(C)c2ccc(C(=O)N(C)C)c(F)c2)[C@H](CC)CN1c1cc(=O)n(C)c2cn(CC#N)nc12 (single isomer, unassigned) [Compound A4a]",569,2690
"CC[C@H]1CN(C(C)c2cc(F)c(CN(C)C)c(F)c2)[C@H](CC)CN1c1cc(=O)n(C)c2cn(CC#N)nc12 (single isomer, unassigned) [Compound A25a]",246,3380
"CC#CCn1cc2c(n1)c(N1C[C@@H](CC)N(C(C)c3ccc4ncsc4c3)C[C@@H]1C)cc(=O)n2C (single isomer, unassigned) [Compound A112b]",> 10000,497
"CC[C@@H]1CN(c2cc(=O)n(C)c3cn(CC#N)nc23)[C@@H](C)CN1[C@H](C)c1ccc2ncoc2c1 (single isomer, unassigned) [Compound A85b]",3500,2040
"CC[C@H]1CN(C(C)c2ccc(C3CC3)nc2)[C@H](CC)CN1c1cc(=O)n(C)c2cn(CC#N)nc12 (single isomer, unassigned) [Compound A38b]",1180,2350
"CC[C@H]1CN(C(C)c2ccc(OC(F)F)cc2)[C@H](CC)CN1c1cc(=O)n(C)c2cn(CC#N)nc12 (single isomer, unassigned) [Compound A19a]",130,22
"CC[C@H]1CN(C(C)c2cc(F)c(C3CC3)cn2)[C@H](CC)CN1c1cc(=O)n(C)c2cn(CC#N)nc12 (stereo partly drawn) [Compound A63, 2-(7-((2S,5R)-4-(1-(5-cyclopropyl-4-fluoropyridin-2-yl)ethyl)-2,5-diethylpiperazin-1-yl)-4-methyl-5-oxo-4,5-dihydro-2H-pyrazolo[4,3-b]pyridin-2-yl)acetonitrile]",21,167
"CC[C@H]1CN(C(C)c2ccc(OC)cc2)[C@H](CC)CN1c1cc(=O)n(C)c2cn(CC#N)nc12 (single isomer, unassigned) [Compound A34a]",75,37
"CC[C@H]1CN(C(C)c2ccc3ncsc3n2)[C@H](CC)CN1c1nc(=O)n(C)c2cn(CC#N)nc12 (single isomer, unassigned) [Compound A126a]",1320,1370
"CC[C@H]1CN(C(C)c2ccc(C3CC3)nc2F)[C@H](CC)CN1c1cc(=O)n(C)c2cn(CC#N)nc12 (single isomer, unassigned) [Compound A45b]",865,728
CC[C@H]1CN([C@H](C)c2ccc(OC(C)C)cc2)[C@H](CC)CN1c1cc(=O)n(C)c2cn(CC#N)nc12 [Compound A33a],45,49
"CC[C@H]1CN(C(C)c2ccc(C(C)(F)F)cc2)[C@H](CC)CN1c1cc(=O)n(C)c2cn(CC#N)nc12 (stereo partly drawn) [Compound A10, 2-(7-((2S,5R)-4-(1-(4-(1,1-difluoroethyl)phenyl)ethyl)-2,5-diethylpiperazin-1-yl)-4-methyl-5-oxo-4,5-dihydro-2H-pyrazolo[4,3-b]pyridin-2-yl)acetonitrile]",104,162
"CC[C@H]1CN(C(C)c2ccc3cncn3c2)[C@H](CC)CN1c1cc(=O)n(C)c2cn(CC#N)nc12 (single isomer, unassigned) [Compound A83a]",8790,648
"CC[C@H]1CN(C(C)c2ccc3nscc3c2)[C@H](CC)CN1c1cc(=O)n(C)c2cn(CC#N)nc12 (stereo partly drawn) [Compound A88, 2-(7-((2S,5R)-4-(1-(benzo[c]isothiazol-5-yl)ethyl)-2,5-diethylpiperazin-1-yl)-4-methyl-5-oxo-4,5-dihydro-2H-pyrazolo[4,3-b]pyridin-2-yl)acetonitrile]",10,51
"CC[C@H]1CN(C(C)c2ccc3nccn3c2)[C@H](CC)CN1c1cc(=O)n(C)c2cn(CC#N)nc12 (single isomer, unassigned) [Compound A82a]",486,109
"CC[C@H]1CN(C(C)c2ccn3ccnc3c2)[C@H](CC)CN1c1cc(=O)n(C)c2cn(CC#N)nc12 (single isomer, unassigned) [Compound A80a]",939,140
"CC[C@H]1CN(C(C)c2ccc(OC(C)C)cn2)[C@H](CC)CN1c1cc(=O)n(C)c2cn(CC#N)nc12 (single isomer, unassigned) [Compound A51b]",1800,337
"CC#CCn1cc2c(n1)c(N1C[C@@H](CC)N(C(C)c3ccc4nc(C)sc4c3F)C[C@@H]1C)cc(=O)n2C (single isomer, unassigned) [Compound A116b]",> 10000,21000
